#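 GI50: concentration for 50% inhibition of growth. TGI: concentration producing complete growth inhibition.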
# Experiments:
# Experiment in all cases: NCI tumour cell line growth inhibition, 384-well format
# SW-620 colon = test system: SW-620 colon
# SF-268 CNS = test system: SF-268 CNS
# ACHN renal = test system: ACHN renal
# PC-3 prostate = test system: PC-3 prostate
# HL-60(TB) leukemia = test system: HL-60(TB) leukemia
# SK-OV-3 ovarian = test system: SK-OV-3 ovarian
# SK-MEL-28 melanoma = test system: SK-MEL-28 melanoma
# RXF 393 renal = test system: RXF 393 renal
# HCT-116 colon = test system: HCT-116 colon
# COLO 205 colon = test system: COLO 205 colon
# NCI-H460 NSCLC = test system: NCI-H460 NSCLC
# T-47D breast = test system: T-47D breast
# DU-145 prostate = test system: DU-145 prostate
# TK-10 renal = test system: TK-10 renal
# SF-539 CNS = test system: SF-539 CNS
# HT29 colon = test system: HT29 colon
# EKVX NSCLC = test system: EKVX NSCLC
# A549 NSCLC = test system: A549 NSCLC
# LOX IMVI melanoma = test system: LOX IMVI melanoma
# A498 renal = test system: A498 renal
# OVCAR-4 ovarian = test system: OVCAR-4 ovarian
# HOP-62 NSCLC = test system: HOP-62 NSCLC
# OVCAR-5 ovarian = test system: OVCAR-5 ovarian
# UO-31 renal = test system: UO-31 renal
# HOP-92 NSCLC = test system: HOP-92 NSCLC
# NCI-H23 lung = test system: NCI-H23 lung
# SK-MEL-2 melanoma = test system: SK-MEL-2 melanoma
# SK-MEL-5 melanoma = test system: SK-MEL-5 melanoma
# OVCAR-8 ovarian = test system: OVCAR-8 ovarian
# MALME-3M melanoma = test system: MALME-3M melanoma
# SN12C renal = test system: SN12C renal
# BT-549 breast = test system: BT-549 breast
# CAKI-1 renal = test system: CAKI-1 renal
# HCC-2998 colon = test system: HCC-2998 colon
# NCI/ADR-RES ovarian = test system: NCI/ADR-RES ovarian
# UACC-62 melanoma = test system: UACC-62 melanoma
# MDA-MB-231 breast = test system: MDA-MB-231 breast
# IGROV1 ovarian = test system: IGROV1 ovarian
# MDA-MB-435 melanoma = test system: MDA-MB-435 melanoma
# SR leukemia = test system: SR leukemia
# U251 glioblastoma = test system: U251 glioblastoma
# HCT-15 colon = test system: HCT-15 colon
# M14 melanoma = test system: M14 melanoma
# CCRF-CEM leukemia = test system: CCRF-CEM leukemia
# 786-0 renal = test system: 786-0 renal
# SNB-75 CNS = test system: SNB-75 CNS
# MDA-MB-468 breast = test system: MDA-MB-468 breast
# NCI-H226 lung = test system: NCI-H226 lung
# OVCAR-3 ovarian = test system: OVCAR-3 ovarian
# RPMI-8226 leukemia = test system: RPMI-8226 leukemia
# KM12 colon = test system: KM12 colon
# K-562 leukemia = test system: K-562 leukemia
# SNB-19 CNS = test system: SNB-19 CNS
# NCI-H322M lung = test system: NCI-H322M lung
# NCI-H522 lung = test system: NCI-H522 lung
# SF-295 CNS = test system: SF-295 CNS
# UACC-257 melanoma = test system: UACC-257 melanoma
# MCF7 breast = test system: MCF7 breast
# MOLT-4 leukemia = test system: MOLT-4 leukemia
compound,measurement,setting,value
C[C@H]1CN(C2COC2)CCN1c1ccc(Nc2cc(-c3ccnc(N4CCn5c(cc6c5CC(C)(C)C6)C4=O)c3CO)cn(C)c2=O)nc1,GI50,SW-620 colon,17.5 µM
same,TGI,SW-620 colon,38.1 µM
same,GI50,SF-268 CNS,16.8 µM
same,TGI,SF-268 CNS,35.4 µM
same,GI50,ACHN renal,19.9 µM
same,TGI,ACHN renal,> 54.2 µM
same,GI50,PC-3 prostate,28.1 µM
same,TGI,PC-3 prostate,90.1 µM
same,GI50,HL-60(TB) leukemia,12.9 µM
same,TGI,HL-60(TB) leukemia,25.9 µM
same,GI50,SK-OV-3 ovarian,16.3 µM
same,TGI,SK-OV-3 ovarian,35.7 µM
same,GI50,SK-MEL-28 melanoma,> 36.9 µM
same,TGI,SK-MEL-28 melanoma,> 53 µM
same,GI50,RXF 393 renal,3.89 µM
same,TGI,RXF 393 renal,26.8 µM
same,GI50,HCT-116 colon,20.6 µM
same,TGI,HCT-116 colon,> 52.4 µM
same,GI50,COLO 205 colon,19.8 µM
same,TGI,COLO 205 colon,39.8 µM
same,GI50,NCI-H460 NSCLC,37.7 µM
same,TGI,NCI-H460 NSCLC,> 100 µM
same,GI50,T-47D breast,20.3 µM
same,TGI,T-47D breast,> 59.5 µM
same,GI50,DU-145 prostate,30.8 µM
same,TGI,DU-145 prostate,97.1 µM
same,GI50,TK-10 renal,17 µM
same,TGI,TK-10 renal,32.8 µM
same,GI50,SF-539 CNS,25.5 µM
same,TGI,SF-539 CNS,> 53.4 µM
same,GI50,HT29 colon,20.5 µM
same,TGI,HT29 colon,> 50.1 µM
same,GI50,EKVX NSCLC,76.9 µM
same,TGI,EKVX NSCLC,> 100 µM
same,GI50,A549 NSCLC,18.5 µM
same,TGI,A549 NSCLC,> 54.3 µM
same,GI50,LOX IMVI melanoma,17.7 µM
same,TGI,LOX IMVI melanoma,31.7 µM
same,GI50,A498 renal,14.3 µM
same,TGI,A498 renal,28.2 µM
same,GI50,OVCAR-4 ovarian,13.3 µM
same,TGI,OVCAR-4 ovarian,> 51.6 µM
same,GI50,HOP-62 NSCLC,17.8 µM
same,TGI,HOP-62 NSCLC,> 48.1 µM
same,GI50,OVCAR-5 ovarian,24.1 µM
same,TGI,OVCAR-5 ovarian,> 67.1 µM
same,GI50,UO-31 renal,16.2 µM
same,TGI,UO-31 renal,29.8 µM
same,GI50,HOP-92 NSCLC,1.15 µM
same,TGI,HOP-92 NSCLC,6.86 µM
same,GI50,NCI-H23 lung,33.5 µM
same,TGI,NCI-H23 lung,> 78.7 µM
same,GI50,SK-MEL-2 melanoma,4.87 µM
same,TGI,SK-MEL-2 melanoma,24.5 µM
same,GI50,SK-MEL-5 melanoma,27.8 µM
same,TGI,SK-MEL-5 melanoma,> 48.2 µM
same,GI50,OVCAR-8 ovarian,20.9 µM
same,TGI,OVCAR-8 ovarian,> 60.7 µM
same,GI50,MALME-3M melanoma,34.8 µM
same,TGI,MALME-3M melanoma,> 54 µM
same,GI50,SN12C renal,20.2 µM
same,TGI,SN12C renal,44.5 µM
same,GI50,BT-549 breast,18.9 µM
same,TGI,BT-549 breast,40.9 µM
same,GI50,CAKI-1 renal,17.8 µM
same,TGI,CAKI-1 renal,> 48.1 µM
same,GI50,HCC-2998 colon,3.62 µM
same,TGI,HCC-2998 colon,14.5 µM
same,GI50,NCI/ADR-RES ovarian,20.8 µM
same,TGI,NCI/ADR-RES ovarian,55.9 µM
same,GI50,UACC-62 melanoma,14.6 µM
same,TGI,UACC-62 melanoma,> 54.6 µM
same,GI50,MDA-MB-231 breast,6.46 µM
same,TGI,MDA-MB-231 breast,20.4 µM
same,GI50,IGROV1 ovarian,15.5 µM
same,TGI,IGROV1 ovarian,33.9 µM
same,GI50,MDA-MB-435 melanoma,26.2 µM
same,TGI,MDA-MB-435 melanoma,> 55.9 µM
same,GI50,SR leukemia,5.31 µM
same,TGI,SR leukemia,18.4 µM
same,GI50,U251 glioblastoma,41.4 µM
same,TGI,U251 glioblastoma,> 100 µM
same,GI50,HCT-15 colon,28.3 µM
same,TGI,HCT-15 colon,> 55.3 µM
same,GI50,M14 melanoma,35 µM
same,TGI,M14 melanoma,> 54.7 µM
same,GI50,CCRF-CEM leukemia,3.36 µM
same,TGI,CCRF-CEM leukemia,13.4 µM
same,GI50,786-0 renal,21.8 µM
same,TGI,786-0 renal,> 52.2 µM
same,GI50,SNB-75 CNS,30.5 µM
same,TGI,SNB-75 CNS,81.6 µM
same,GI50,MDA-MB-468 breast,14.5 µM
same,TGI,MDA-MB-468 breast,32.8 µM
same,GI50,NCI-H226 lung,11.8 µM
same,TGI,NCI-H226 lung,28.4 µM
same,GI50,OVCAR-3 ovarian,10.7 µM
same,TGI,OVCAR-3 ovarian,24.7 µM
same,GI50,RPMI-8226 leukemia,0.86 µM
same,TGI,RPMI-8226 leukemia,2.55 µM
same,GI50,KM12 colon,26.2 µM
same,TGI,KM12 colon,> 58.9 µM
same,GI50,K-562 leukemia,20.6 µM
same,TGI,K-562 leukemia,> 53.8 µM
same,GI50,SNB-19 CNS,29.8 µM
same,TGI,SNB-19 CNS,> 85.4 µM
same,GI50,NCI-H322M lung,28.6 µM
same,TGI,NCI-H322M lung,> 72.8 µM
same,GI50,NCI-H522 lung,12.7 µM
same,TGI,NCI-H522 lung,37.2 µM
same,GI50,SF-295 CNS,35 µM
same,TGI,SF-295 CNS,> 60.1 µM
same,GI50,UACC-257 melanoma,16.4 µM
same,TGI,UACC-257 melanoma,34.5 µM
same,GI50,MCF7 breast,14.1 µM
same,TGI,MCF7 breast,> 44 µM
same,GI50,MOLT-4 leukemia,0.731 µM
same,TGI,MOLT-4 leukemia,1.93 µM
